Data reported in patent US20180072997A1, “INHIBITORS OF HUMAN IMMUNODEFICIENCY VIRUS REPLICATION” (ViiV HEATHCARE UK (NO.5) LIMITED, priority 2015, published 2018).

Experiments:
[1] = system: uninfected MT2 cells; experiment: Compound cytotoxicity, XTT-based colorimetric assay; type: cell-based; conditions: day 4, XTT
In short: (§1)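 Run under the antiviral-assay protocol but without virus. Viability was read on day 4 and CC50 values were derived from the readout.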

[2] = system: recombinant NL4-3 virus (Renilla luciferase in nef) in MT-2 cells; experiment: whole plant or invertebrate; type: cell-based, HIV; conditions: luciferase activity
In short: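 MT-2 cells infected for 4-5 days with NL4-3 reporter virus (Renilla luciferase replacing part of nef, produced by transfection of 293T cells) in the presence of serial compound dilutions. Antiviral activity quantified by luciferase activity read with a live-cell substrate.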

[3] = Compound cytotoxicity, XTT-based colorimetric assay; type: cell-based; conditions: human, uninfected MT2 cells, day 4, XTT
In short: as §1

[4] = MT-2 cells infected for 4-5 days with recombinant NL4-3 Renilla luciferase virus
[5] = Renilla, NL43, MT-2 cells infected for 4-5 days with recombinant NL4-3 Renilla luciferase virus

`COc1ccc(N(C)C(=O)[C@H](Cc2ccccc2)NC(=O)C=C(C)CC(=O)N[C@@H](Cc2ccccc2)C(=O)N(C)c2ccc(OC)cc2)cc1` (single isomer, unassigned) [Example 114] showed a CC50 [1] of 27.1 µM and an EC50 [2, 4] of 1.78 µM.
`COc1ccc(N(C)C(=O)[C@H](Cc2cc(F)cc(F)c2)NC(=O)C(C)n2c(=O)n(C(C)C(=O)N[C@@H](Cc3cc(F)cc(F)c3)C(=O)N(C)c3ccc(OC)cc3)c3ccccc32)cc1` (single isomer, unassigned) [Example 133] showed a CC50 [1] of 13.9 µM and an EC50 [2, 4] of 0.41 µM.
`COc1ccc(N(C)C(=O)[C@H](Cc2ccccc2)NC(=O)C(C)n2c(=O)n(C(C)C(=O)N[C@@H](Cc3ccccc3)C(=O)N(C)c3ccc(OC)cc3)c3ccccc32)cc1` (single isomer, unassigned) [Example 134] showed a CC50 [1] of 10.8 µM and an EC50 [2, 4] of 0.82 µM.
With `C=CCCN(C(=O)[C@H](Cc1cc(F)cc(F)c1)NC(=O)NS(=O)(=O)N[C@@H](Cc1cc(F)cc(F)c1)C(=O)N(CCC=C)c1ccc2scnc2c1)c1ccc2scnc2c1` (single isomer, unassigned) [Example 142] the CC50 [1] was 17.4 µM and the EC50 [2, 4] was 0.82 µM.
`C=CCN(C(=O)[C@H](Cc1cc(F)cc(F)c1)NC(=O)c1nccnc1C(=O)N[C@@H](Cc1cc(F)cc(F)c1)C(=O)N(CC=C)c1ccc(OC)cc1)c1ccc(OC)cc1` [Example 212] gave a CC50 at 4 days [3] of no less than 100 µM and an EC50 [2, 5] of 3.73 µM.
With `C=CCN(C(=O)[C@H](Cc1cc(F)cc(F)c1)NC(=O)NS(=O)(=O)N[C@@H](Cc1cc(F)cc(F)c1)C(=O)N(CC=C)c1ccc2nccnc2c1)c1ccc2nccnc2c1` [Example 213] the CC50 at 4 days [3] was no less than 100 µM and the EC50 [2, 5] was 8.21 µM.
`CN(C(=O)[C@H](Cc1cc(F)cc(F)c1)NC(=O)NS(=O)(=O)N[C@@H](Cc1cc(F)cc(F)c1)C(=O)N(C)c1ccc(OC(F)F)nc1)c1ccc(OC(F)F)nc1` [Example 214] gave a CC50 at 4 days [3] of 43.8 µM and an EC50 [2, 5] of 0.01 µM.
For `CN(C(=O)[C@H](Cc1cc(F)cc(F)c1)NC(=O)NS(=O)(=O)N[C@@H](Cc1cc(F)cc(F)c1)C(=O)N(C)c1ccc(F)c(F)c1)c1ccc(F)c(F)c1` [Example 215], the CC50 at 4 days [3] was 34.5 µM and the EC50 [2, 5] was 0.31 µM.
`Cc1ccc(N(C)C(=O)[C@H](Cc2ccccc2)NC(=O)NS(=O)(=O)N[C@@H](Cc2ccccc2)C(=O)N(C)c2ccc(C)c(Cl)c2)cc1Cl` [Example 220] gave a CC50 at 4 days [3] of 16.7 µM and an EC50 [2, 5] of 3.8 µM.
`CN(C(=O)[C@H](Cc1cc(F)cc(F)c1)NC(=O)N[C@@H](Cc1cc(F)cc(F)c1)C(=O)N(C)c1ccc2scnc2c1)c1ccc2scnc2c1` [Example 221] gave a CC50 at 4 days [3] of no less than 100 µM and an EC50 [2, 5] of 0.52 µM.
In the case of `C=CCCN(C(=O)[C@H](Cc1ccccc1)NC(=O)NS(=O)(=O)N[C@@H](Cc1ccccc1)C(=O)N(CC=C)c1ccc(OC)nc1)c1ccc(OC)nc1` [Example 223], the CC50 at 4 days [3] is reported as no less than 25 µM and the EC50 [2, 5] is reported as 1.5 µM.
`Cc1cc(F)cc(N(C)C(=O)[C@H](Cc2ccccc2)NC(=O)NS(=O)(=O)N[C@@H](Cc2ccccc2)C(=O)N(C)c2cc(C)cc(F)c2)c1` [Example 224] showed a CC50 at 4 days [3] of 46 µM and an EC50 [2, 5] of 3.91 µM.
`Cc1ncc(N(C)C(=O)[C@H](Cc2cc(F)cc(F)c2)NC(=O)NS(=O)(=O)N[C@@H](Cc2cc(F)cc(F)c2)C(=O)N(C)c2cnc(C)c(Cl)c2)cc1Cl` [Example 225] showed a CC50 at 4 days [3] of 2.3 µM and an EC50 [2, 5] of 0.87 µM.
With `CN(C(=O)[C@H](Cc1cc(F)cc(F)c1)NC(=O)NS(=O)(=O)N[C@@H](Cc1cc(F)cc(F)c1)C(=O)N(C)c1cnc2scnc2c1)c1cnc2scnc2c1` [Example 226] the CC50 at 4 days [3] was no less than 100 µM and the EC50 [2, 5] was 8.92 µM.
`Cc1cc(N(C)C(=O)[C@H](Cc2ccccc2)NC(=O)NS(=O)(=O)N[C@@H](Cc2ccccc2)C(=O)N(C)c2ccc(C#N)c(C)c2)ccc1C#N` [Example 228] gave a CC50 at 4 days [3] of 93.5 µM and an EC50 [2, 5] of 2.74 µM.
`Cc1cc(N(C)C(=O)[C@H](Cc2ccccc2)NC(=O)NS(=O)(=O)N[C@@H](Cc2ccccc2)C(=O)N(C)c2ccc(F)c(C)c2)ccc1F` [Example 229] showed a CC50 at 4 days [3] of 64.7 µM and an EC50 [2, 5] of 2.64 µM.
`CN(C(=O)[C@H](Cc1cc(F)cc(F)c1)NC(=O)c1ccc(F)c(C(=O)N[C@@H](Cc2cc(F)cc(F)c2)C(=O)N(C)c2ccc(C3CC3)cc2)c1)c1ccc(C2CC2)cc1` [Example 230] showed a CC50 at 4 days [3] of no less than 100 µM and an EC50 [2, 5] of 0.02 µM.
For `COc1ccc(N(C)C(=O)[C@H](Cc2cc(F)cc(F)c2)NC(=O)CN2c3ccccc3N(CC(=O)N[C@@H](Cc3cc(F)cc(F)c3)C(=O)N(C)c3ccc(OC)c(F)c3)S2(=O)=O)cc1F` [Example 231], the CC50 at 4 days [3] was no less than 100 µM and the EC50 [2, 5] was 0.04 µM.
`COc1ccc(N(C)C(=O)[C@H](Cc2cc(F)cc(F)c2)NC(=O)c2ccc(F)c(C(=O)N[C@@H](Cc3cc(F)cc(F)c3)C(=O)N(C)c3ccc(OC)c(F)c3)c2)cc1F` [Example 232] gave a CC50 at 4 days [3] of no less than 33.3 µM and an EC50 [2, 5] of 0.18 µM.
Work on `COc1ccc(N(C)C(=O)[C@H](Cc2cc(F)cc(F)c2)NC(=O)NS(=O)(=O)N[C@@H](Cc2cc(F)cc(F)c2)C(=O)N(C)c2ccc(OC)c(F)c2)cc1F` [Example 233] yielded a CC50 at 4 days [3] of 35.8 µM and an EC50 [2, 5] of 0.03 µM.
`CC#CCN(C(=O)[C@H](Cc1cc(F)cc(F)c1)NC(=O)c1cc(F)c(F)cc1C(=O)N[C@@H](Cc1cc(F)cc(F)c1)C(=O)N(CC#CC)c1ccc(OC)cc1)c1ccc(OC)cc1` [Example 234] gave a CC50 at 4 days [3] of 95.3 µM and an EC50 [2, 5] of 6.83 µM.
In the case of `Cc1cc(N(C)C(=O)[C@H](Cc2cc(F)cc(F)c2)NC(=O)NS(=O)(=O)N[C@@H](Cc2cc(F)cc(F)c2)C(=O)N(C)c2cnc(C)c(C)c2)cnc1C` [Example 235], the CC50 at 4 days [3] is reported as no less than 100 µM and the EC50 [2, 5] is reported as 7 µM.
In the case of `CN(C(=O)[C@H](Cc1cc(F)cc(F)c1)NC(=O)NS(=O)(=O)N[C@@H](Cc1cc(F)cc(F)c1)C(=O)N(C)c1cccnc1)c1cccnc1` [Example 236], the CC50 at 4 days [3] is reported as no less than 100 µM and the EC50 [2, 5] is reported as 4.14 µM.
`CN(C(=O)[C@H](Cc1cc(F)cc(F)c1)NC(=O)NS(=O)(=O)N[C@@H](Cc1cc(F)cc(F)c1)C(=O)N(C)c1ccc2sc(=O)n(C)c2c1)c1ccc2sc(=O)n(C)c2c1` [Example 237] gave a CC50 at 4 days [3] of 71.9 µM and an EC50 [2, 5] of 0.27 µM.
Work on `Cc1nc2c(F)c(N(C)C(=O)[C@H](Cc3cc(F)cc(F)c3)NC(=O)NS(=O)(=O)N[C@@H](Cc3cc(F)cc(F)c3)C(=O)N(C)c3ccc4sc(C)nc4c3F)ccc2s1` [Example 239] yielded a CC50 at 4 days [3] of no less than 100 µM and an EC50 [2, 5] of 0.86 µM.
For `COc1ccc(N(C)C(=O)[C@H](Cc2cc(F)cc(F)c2)NC(=O)c2cc(F)c(F)cc2C(=O)N[C@@H](Cc2cc(F)cc(F)c2)C(=O)N(C)c2ccc(OC)cc2)cc1` [Example 254], the CC50 at 4 days [3] was 10 µM and the EC50 [2, 5] was 0.09 µM.
For `COc1ccc(N(C)C(=O)[C@H](Cc2cc(F)cc(F)c2)NC(=O)c2cc(Cl)c(Cl)cc2C(=O)N[C@@H](Cc2cc(F)cc(F)c2)C(=O)N(C)c2ccc(OC)cc2)cc1` [Example 255], the CC50 at 4 days [3] was 10 µM and the EC50 [2, 5] was 0.08 µM.
